# Test results from US7393853B2, “Use of substituted 8-Perfluoroalkyl-6,7,8,9-tetrahydropyrimido[1,2-a] pyrimidin-4-one derivatives as therapeutic agents” (Sanofi Aventis, priority 2003, dated 2008).
# Where a name gives a salt, the structure may show the parent alone.
# Assays:
# GSK3β = GSK3β (Homo sapiens, UniProt P49841); assay: Inhibitory activity against GSK3β (33P-ATP phosphorylation of prephosphorylated GS1 peptide, two protocols); format: biochemical; details: protocol (first or second) not specified
# Chain of GSK3β (P49841 whole entry, species assumed): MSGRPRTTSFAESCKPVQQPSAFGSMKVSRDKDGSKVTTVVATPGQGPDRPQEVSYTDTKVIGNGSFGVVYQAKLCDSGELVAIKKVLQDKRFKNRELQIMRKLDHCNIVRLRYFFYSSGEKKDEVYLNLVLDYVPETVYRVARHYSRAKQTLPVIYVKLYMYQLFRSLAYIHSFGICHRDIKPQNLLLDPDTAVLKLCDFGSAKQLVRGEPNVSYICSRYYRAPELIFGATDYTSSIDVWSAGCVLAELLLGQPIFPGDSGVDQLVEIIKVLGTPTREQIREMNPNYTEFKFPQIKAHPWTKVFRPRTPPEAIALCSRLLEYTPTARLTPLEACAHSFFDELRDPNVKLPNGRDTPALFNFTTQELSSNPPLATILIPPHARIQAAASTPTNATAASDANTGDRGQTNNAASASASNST
# Experimental: Inhibitory Activity of the Medicament of the Present Invention Against GSK3β
# Two different protocols can be used.
# In a first protocol: 7.5 μM of prephosphorylated GS1 peptide and 10 μM ATP (containing 300,000 cpm of 33P-ATP) were incubated in 25 mM Tris-HCl, pH 7.5, 0.6 mM DTT, 6 mM MgCl2, 0.6 mM EGTA, 0.05 mg/ml BSA buffer for 1 hour at room temperature in the presence of GSK3beta (total reaction volume: 100 microliters).
# In a second protocol: 4.1 μM of prephosphorylated GS1 peptide and 42 μM ATP (containing 260,000 cpm 33P-ATP) were incubated in 80 mM Mes-NaOH, pH 6.5, 1 mM Mg acetate, 0.5 mM EGTA, 5 mM 2-mercaptoethanol, 0.02% Tween 20, 10% glycerol buffer for 2 hours at room temperature in the presence of GSK3beta.
# Inhibitors were solubilized in DMSO (final solvent concentration in the reaction medium, 1%).
# The reaction was stopped with 100 microliters of a solution made of 25 g polyphosphoric acid (85% P2O5), 126 ml 85% H3PO4, H2O to 500 ml and then diluted to 1:100 before use. An aliquot of the reaction mixture was then transferred to Whatman P81 cation exchange filters and rinsed with the solution described above. Incorporated 33P radioactivity was determined by liquid scintillation spectrometry.
# The phosphorylated GS-1 peptide had the following sequence: […]
melting point,IC50 (GSK3β),SMILES
241 to 242 °C,,"O=C(CN1c2nc(-c3ccncc3)c(F)c(=O)n2CCC1C(F)(F)F)c1ccccc1 (racemic) [compound 10, 3-Fluoro-9-(2-oxo-2-phenylethyl)-2-pyridin-4-yl-8-(trifluoromethyl)-6,7,8,9-tetrahydro-4H-pyrimido[1,2-a]pyrimidin-4-one]"
177 to 179 °C,,"O=c1cc(-c2ccncn2)nc2n1CCC(C(F)(F)F)N2Cc1ccccc1 (racemic) [compound 11, 9-(Phenylmethyl)-2-pyrimidin-4-yl-8-(trifluoromethyl)-6,7,8,9-tetrahydro-4H-pyrimido[1,2-a]pyrimidin-4-one]"
147 to 149 °C,,"O=c1cc(-c2ccncn2)nc2n1CCC(C(F)(F)F)N2CCc1ccccc1 (racemic) [compound 12, 9-(2-Phenylethyl)-2-pyrimidin-4-yl-8-(trifluoromethyl)-6,7,8,9-tetrahydro-4H-pyrimido[1,2-a]pyrimidin-4-one]"
236 to 238 °C,,"O=C(CN1c2nc(-c3ccncn3)cc(=O)n2CCC1C(F)(F)F)c1cccc(Br)c1 (racemic) [compound 13, 9-[2-(3-Bromophenyl)-2-oxoethyl]-2-pyrimidin-4-yl-8-(trifluoromethyl)-6,7,8,9-tetrahydro-4H-pyrimido[1,2-a]pyrimidin-4-one]"
245 to 247 °C,,"O=C(CN1c2nc(-c3ccncn3)cc(=O)n2CCC1C(F)(F)F)c1cccc(F)c1 (racemic) [compound 14, 9-[2-(3-Fluorophenyl)-2-oxoethyl]-2-pyrimidin-4-yl-8-(trifluoromethyl)-6,7,8,9-tetrahydro-4H-pyrimido[1,2-a]pyrimidin-4-one]"
239 to 241 °C,,"Cc1ccc(C(=O)CN2c3nc(-c4ccncn4)cc(=O)n3CCC2C(F)(F)F)cc1 (racemic) [compound 15, 9-[2-(4-Methylphenyl)-2-oxoethyl]-2-pyrimidin-4-yl-8-(trifluoromethyl)-6,7,8,9-tetrahydro-4H-pyrimido[1,2-a]pyrimidin-4-one]"
253 to 255 °C,,"O=C(CN1c2nc(-c3ccncn3)cc(=O)n2CCC1C(F)(F)F)c1ccc(F)cc1 (racemic) [compound 16, 9-[2-(4-Fluorophenyl)-2-oxoethyl]-2-pyrimidin-4-yl-8-(trifluoromethyl)-6,7,8,9-tetrahydro-4H-pyrimido[1,2-a]pyrimidin-4-one]"
201 to 203 °C,,"N#Cc1ccc(C(=O)CN2c3nc(-c4ccncn4)cc(=O)n3CCC2C(F)(F)F)cc1 (racemic) [compound 17, 9-[2-(4-Cyanophenyl)-2-oxoethyl]-2-pyrimidin-4-yl-8-(trifluoromethyl)-6,7,8,9-tetrahydro-4H-pyrimido[1,2-a]pyrimidin-4-one]"
231 to 233 °C,,"O=C(CN1c2nc(-c3ccncn3)cc(=O)n2CCC1C(F)(F)F)c1ccc(-c2ccccc2)cc1 (racemic) [compound 18, 9-(2-biphenyl-4-yl-2-oxoethyl)-2-pyrimidin-4-yl-8-(trifluoromethyl)-6,7,8,9-tetrahydro-4H-pyrimido[1,2-a]pyrimidin-4-one]"
,3 nM,"O=C(CN1c2nc(-c3ccncc3)cc(=O)n2CCC1C(F)(F)F)c1ccccc1 (single isomer, unassigned; (-)) [compound 6, (−)-9-(2-Oxo-2-phenyl-ethyl)-2-(4-pyridinyl)-8-(trifluoromethyl)-6,7,8,9-tetrahydro-4H-pyrimido[1,2-a]pyrimidin-4-one hydrochloride (1:1).]"
